The pIC50 is the IC50 on a negative log10 scale, so that one unit is a factor of ten. Read a high pIC50 as a small IC50.

pIC50: −log10 of the molar value.

In the experiment the test system is SU-DHL-1 cells. In words: Inhibition activity of cell proliferation (CCK-8 assay). The format is cell-based. The settings on record: Homo sapiens, 72 h exposure. The protocol: SU-DHL-1 cells were seeded in 96-well tissue culture plates. On the next day, cells were exposed to various concentrations of compounds and further cultured for 72 h. Cell proliferation was then determined using Cell Counting Kit-8 [(CCK-8), Dojindo]assay. Briefly, add 10 μL of the CCK-8 solution to each well of the plate. Incubate the plate for 1-4 hours in the incubator. Measure the absorbance at 450 nm using a multi-well spectrophotometer (SpectraMAX 190, Molecular Devices). The inhibition rate (%) was calculated using the following equation: [1−(A450 Compound/A450 Control)]×100%. IC50 values were calculated according to inhibition curve by four-parameter fit.
Background: Tetrazolium assays rely on reduction of a dye to a coloured formazan, in cell work by metabolically active cells.
Regarding `COCCN1CCC(c2c(C)cc(Nc3ncc(Cl)c(Nc4ccccc4S(=O)(=O)C(C)C)n3)c3c2C[C@H](C)O3)CC1` [Example 31, (S)-5-chloro-N-4-(2-(isopropylsulfonyl)phenyl)-N-2-(4-(1-(2-methoxyethyl)piperidin-4-yl)-2,5-dimethyl-2,3-dihydrobenzofuran-7-yl)pyrimidine-2,4-diamine], the pIC50 was 7.13. For the molecule `COCCN1CCC(c2c(C)cc(Nc3ncc(Cl)c(Nc4ccccc4S(=O)(=O)C(C)C)n3)c3c2C[C@@H](C)O3)CC1` [Example 32, (R)-5-chloro-N-4-(2-(isopropylsulfonyl)phenyl)-N-2-(4-(1-(2-methoxyethyl)piperidin-4-yl)-2,5-dimethyl-2,3-dihydrobenzofuran-7-yl)pyrimidine-2,4-diamine], the negative-log IC50 (pIC50) was 7.71. `Cc1cc(Nc2ncc(Cl)c(Nc3ccccc3S(=O)(=O)C(C)C)n2)c2c(c1C1CCN(CCO)CC1)C[C@@H](C)O2` [Example 33, (R)-2-(4-(7-((5-chloro-4-((2-(isopropylsulfonyl)phenyl)amino)pyrimidin-2-yl)amino)-2,5-dimethyl-2,3-dihydrobenzofuran-4-yl)piperidin-1-yl)ethanol] had a pIC50 of 7.93. In turn, `Cc1cc(Nc2ncc(Cl)c(Nc3ccccc3S(=O)(=O)C(C)C)n2)c2c(c1C1CCN(CCO)CC1)C[C@H](C)O2` [Example 34, (S)-2-(4-(7-((5-chloro-4-((2-(isopropylsulfonyl)phenyl)amino)pyrimidin-2-yl)amino)-2,5-dimethyl-2,3-dihydrobenzofuran-4-yl)piperidin-1-yl)ethanol] showed a pIC50 of 7.91. This pIC50 and that of the molecule before are within 0.2 log units of each other. In the case of `Cc1cc(Nc2ncc(Cl)c(Nc3ccccc3S(=O)(=O)C(C)C)n2)c2c(c1C1CCN(C[C@@H](C)O)CC1)C[C@H](C)O2` [Example 35, (R)-1-(4-((S)-7-((5-chloro-4-((2-(isopropylsulfonyl)phenyl)amino)pyrimidin-2-yl)amino)-2,5-dimethyl-2,3-dihydrobenzofuran-4-yl)piperidin-1-yl)propan-2-ol], the pIC50 is 7.43. This pIC50 is 0.48 log units lower than that of the molecule before. The value for `Cc1cc(Nc2ncc(Cl)c(Nc3ccccc3S(=O)(=O)C(C)C)n2)c2c(c1C1CCN(C[C@H](C)O)CC1)C[C@H](C)O2` [Example 36, (S)-1-(4-((S)-7-((5-chloro-4-((2-(isopropylsulfonyl)phenyl)amino)pyrimidin-2-yl)amino)-2,5-dimethyl-2,3-dihydrobenzofuran-4-yl)piperidin-1-yl)propan-2-ol] was 7.58; that for `Cc1cc(Nc2ncc(Cl)c(Nc3ccccc3S(=O)(=O)C(C)C)n2)c2c(c1C1CCN(C(=O)CO)CC1)C[C@@H](C)O2` [Example 37, (R)-1-(4-(7-((5-chloro-4-((2-(isopropylsulfonyl)phenyl)amino)pyrimidin-2-yl)amino)-2,5-dimethyl-2,3-dihydrobenzofuran-4-yl)piperidin-1-yl)-2-hydroxyethanone] was 7.90; that for `Cc1cc(Nc2ncc(Cl)c(Nc3ccccc3S(=O)(=O)C(C)C)n2)c2c(c1C1CCN(C(=O)[C@H](C)O)CC1)C[C@@H](C)O2` [Example 38, (S)-1-(4-((R)-7-((5-chloro-4-((2-(isopropylsulfonyl)phenyl)amino)pyrimidin-2-yl)amino)-2,5-dimethyl-2,3-dihydrobenzofuran-4-yl)piperidin-1-yl)-2-hydroxypropan-1-one] was 7.87. With `Cc1cc(Nc2ncc(Cl)c(Nc3ccccc3S(=O)(=O)C(C)C)n2)c2c(c1C1CCN(C(=O)[C@@H](C)O)CC1)C[C@@H](C)O2` [Example 39, (R)-1-(4-((R)-7-((5-chloro-4-((2-(isopropylsulfonyl)phenyl)amino)pyrimidin-2-yl)amino)-2,5-dimethyl-2,3-dihydrobenzofuran-4-yl)piperidin-1-yl)-2-hydroxypropan-1-one], the negative-log IC50 (pIC50) is 7.99. `COC(=O)N1CCC(c2c(C)cc(Nc3ncc(Cl)c(Nc4ccccc4S(=O)(=O)C(C)C)n3)c3c2C[C@H](C)O3)CC1` [Example 40, (S)-methyl 4-(7-((5-chloro-4-((2-(isopropylsulfonyl)phenyl)amino)pyrimidin-2-yl)amino)-2,5-dimethyl-2,3-dihydrobenzofuran-4-yl)piperidine-1-carboxylate]: the pIC50 was 6.92. `CCOC(=O)CN1CCC(c2c(C)cc(Nc3ncc(Cl)c(Nc4ccccc4S(=O)(=O)C(C)C)n3)c3c2C[C@H](C)O3)CC1` [Example 41, (S)-ethyl 2-(4-(7-((5-chloro-4-((2-(isopropylsulfonyl)phenyl)amino)pyrimidin-2-yl)amino)-2,5-dimethyl-2,3-dihydrobenzofuran-4-yl)piperidin-1-yl)acetate] showed a pIC50 of 7.36. `Cc1cc(Nc2ncc(Cl)c(Nc3ccccc3S(=O)(=O)C(C)C)n2)c2c(c1C1CCN(C(=O)CN)CC1)C[C@H](C)O2` [Example 42, (S)-2-amino-1-(4-(7-((5-chloro-4-((2-(isopropylsulfonyl)phenyl)amino)pyrimidin-2-yl)amino)-2,5-dimethyl-2,3-dihydrobenzofuran-4-yl)piperidin-1-yl)ethanone] gave a pIC50 of 7.26.

For the molecule `Cc1cc(Nc2ncc(Cl)c(Nc3ccccc3S(=O)(=O)C(C)C)n2)c2c(c1C1CCN(C(N)=O)CC1)C[C@H](C)O2` [Example 43, (S)-4-(7-((5-chloro-4-((2-(isopropylsulfonyl)phenyl)amino)pyrimidin-2-yl)amino)-2,5-dimethyl-2,3-dihydrobenzofuran-4-yl)piperidine-1-carboxamide], the pIC50 is 6.97. `CNCC(=O)N1CCC(c2c(C)cc(Nc3ncc(Cl)c(Nc4ccccc4S(=O)(=O)C(C)C)n3)c3c2C[C@H](C)O3)CC1` [Example 44, (S)-1-(4-(7-((5-chloro-4-((2-(isopropylsulfonyl)phenyl)amino)pyrimidin-2-yl)amino)-2,5-dimethyl-2,3-dihydrobenzofuran-4-yl)piperidin-1-yl)-2-(methylamino)ethanone] gave a pIC50 of 6.58.

As to `Cc1cc(Nc2ncc(Cl)c(Nc3ccccc3S(=O)(=O)C(C)C)n2)c2c(c1C1CCN(C(=O)CN(C)C)CC1)C[C@H](C)O2` [Example 45, (S)-1-(4-(7-((5-chloro-4-((2-(isopropylsulfonyl)phenyl)amino)pyrimidin-2-yl)amino)-2,5-dimethyl-2,3-dihydrobenzofuran-4-yl)piperidin-1-yl)-2-(dimethylamino)ethanone], the pIC50 was 7.40. The molecule `Cc1cc(Nc2ncc(Cl)c(Nc3ccccc3S(=O)(=O)C(C)C)n2)c2c(c1C(=O)N1CCNCC1)C[C@H](C)O2` [Example 46, (S)-(7-((5-chloro-4-((2-(isopropylsulfonyl)phenyl)amino)pyrimidin-2-yl)amino)-2,5-dimethyl-2,3-dihydrobenzofuran-4-yl)(piperazin-1-yl)methanone] gave a pIC50 of 6.94. Against the preceding molecule, the pIC50 is 0.46 log units lower. For `Cc1cc(Nc2ncc(Cl)c(Nc3ccccc3S(=O)(=O)C(C)C)n2)c2c(c1C(=O)N1CCN(C)CC1)C[C@H](C)O2` [Example 47, (S)-(7-((5-chloro-4-((2-(isopropylsulfonyl)phenyl)amino)pyrimidin-2-yl)amino)-2,5-dimethyl-2,3-dihydrobenzofuran-4-yl)(4-methylpiperazin-1-yl)methanone], the pIC50 was 6.93.

In turn, `Cc1cc(Nc2ncc(Cl)c(Nc3ccccc3S(=O)(=O)C(C)C)n2)c2c(c1C(=O)N1CCOCC1)C[C@H](C)O2` [Example 48, (S)-(7-((5-chloro-4-((2-(isopropylsulfonyl)phenyl)amino)pyrimidin-2-yl)amino)-2,5-dimethyl-2,3-dihydrobenzofuran-4-yl)(morpholino)methanone] had a pIC50 of 6.66. `CCC(=O)N1CCC(c2c(C)cc(Nc3ncc(Cl)c(Nc4ccccc4S(=O)(=O)C(C)C)n3)c3c2C[C@@H](C)O3)CC1` [Example 49, (R)-1-(4-(7-((5-chloro-4-((2-(isopropylsulfonyl)phenyl)amino)pyrimidin-2-yl)amino)-2,5-dimethyl-2,3-dihydrobenzofuran-4-yl)piperidin-1-yl)propan-1-one] had a pIC50 of 7.01. Against the preceding molecule, the pIC50 is 0.35 log units higher. Molecule `Cc1cc(Nc2ncc(Cl)c(Nc3ccccc3S(=O)(=O)C(C)C)n2)c2c(c1C1CCN(C(=O)C(C)C)CC1)C[C@@H](C)O2` [Example 50, (R)-1-(4-(7-((5-chloro-4-((2-(isopropylsulfonyl)phenyl)amino)pyrimidin-2-yl)amino)-2,5-dimethyl-2,3-dihydrobenzofuran-4-yl)piperidin-1-yl)-2-methylpropan-1-one] had a negative-log IC50 (pIC50) of 7.09. On to `Cc1cc(Nc2ncc(Cl)c(Nc3ccccc3S(=O)(=O)C(C)C)n2)c2c(c1C1CCN(C(=O)C3CC3)CC1)C[C@@H](C)O2` [Example 51, (R)-(4-(7-((5-chloro-4-((2-(isopropylsulfonyl)phenyl)amino)pyrimidin-2-yl)amino)-2,5-dimethyl-2,3-dihydrobenzofuran-4-yl)piperidin-1-yl)(cyclopropyl)methanone], for which the pIC50 was 7.28. The pIC50 values of the last two molecules are within 0.2 log units of each other. Molecule `CCS(=O)(=O)N1CCC(c2c(C)cc(Nc3ncc(Cl)c(Nc4ccccc4S(=O)(=O)C(C)C)n3)c3c2C[C@@H](C)O3)CC1` [Example 52, (R)-5-chloro-N-2-(4-(1-(ethylsulfonyl)piperidin-4-yl)-2,5-dimethyl-2,3-dihydrobenzofuran-7-yl)-N-4-(2-(isopropylsulfonyl)phenyl)pyrimidine-2,4-diamine] gave a negative-log IC50 (pIC50) of 7.23.

`Cc1cc(Nc2ncc(Cl)c(Nc3ccccc3S(=O)(=O)C(C)C)n2)c2c(c1C1CCN(S(=O)(=O)C(C)C)CC1)C[C@@H](C)O2` [Example 53] showed a pIC50 of 6.96. Against the preceding molecule, the pIC50 is 0.27 log units lower.

Turning to `Cc1cc(Nc2ncc(Cl)c(Nc3ccccc3S(=O)(=O)C(C)C)n2)c2c(c1C1CCN(S(=O)(=O)C3CC3)CC1)C[C@@H](C)O2` [Example 54, (R)-5-chloro-N-2-(4-(1-(cyclopropylsulfonyl)piperidin-4-yl)-2,5-dimethyl-2,3-dihdyrobenzofuran-7-yl)-N-4-(2-(isopropylsulfonyl)phenyl)pyrimidine-2,4-diamine], the pIC50 is 6.48.

Values taken from patent publication US9567342B2, “Certain protein kinase inhibitors” (SHANGHAI FOCHON PHARMACEUTICAL CO., LTD., priority 2012, dated 2017).
